# Experimental data: patent US10919935B2, “Antimicrobial peptide derived from myxinidin peptide and uses thereof” (INDUSTRY-ACADEMIC COOPERATION FOUNDATION, CHOSUN UNIVERSITY, priority 2015, dated 2021)
# Residues, ends and D or L forms follow the SMILES beside them.
# How the values were obtained:
# S. typhimurium 8009 = assay: MIC at salt concentration (Example 3); assay type: cell-based, Salmonella typhimurium
# Protocol: (§1) To compare the antimicrobial activity of the peptide produced by the method of Example 1, the inventors of the present invention measured the minimum growth inhibitory concentration (MIC), which is minimum concentration of the peptide showing no dissociation of bacterial cells, at salt concentration.
# (§2) Specifically, the bacterial strain described in the above Table 2 was cultured in each medium to a mid-log phase. Then, after dilution to bacterial cell concentration of 2×10^5 cells/100 μl, the cells were inoculated to a microtiter plate (NUNC, USA). Thereafter, myxinidin 1, myxinidin 2, or myxinidin 3 peptides which have been synthesized in Example 1 above was diluted, 1/2 times for each, with BSA+150 mM sodium chloride (NaCl) solution, physiological saline (PBS) solution, or 10 mM sodium phosphate (SP) solution in a 96-well plate. After adding the cells to a plate, the cells were cultured for 12 hours at 37° C. By using a microtiter plate reader (Merck Elisa reader, Germany), the absorbance was measured at a wavelength of 600 nm to determine the MIC value of each bacterial strain. As a control group, myxinidin as a mother peptide was subjected to the same processes as above and the MIC value of each bacterial strain was obtained.
# S. typhimurium 8013 = assay: MIC at salt concentration (Example 3); assay type: cell-based, Salmonella typhimurium
# Protocol: as §1, §2
# S. typhimurium = assay: MIC at salt concentration (Example 3); assay type: cell-based, Salmonella typhimurium
# Protocol: as §1, §2
# S. aureus 3114 = assay: MIC at salt concentration (Example 3); assay type: cell-based, Staphylococcus aureus
# Protocol: as §1, §2
# S. aureus 3709 = assay: MIC at salt concentration (Example 3); assay type: cell-based, Staphylococcus aureus
# Protocol: as §1, §2
# S. aureus [1] = assay: MIC at salt concentration (Example 3); assay type: cell-based, Staphylococcus aureus
# Protocol: as §1, §2
# L. monocytogenes [2] = assay: MIC at salt concentration (Example 3); assay type: cell-based, Listeria monocytogenes
# Protocol: as §1, §2
# Escherichia coli 1229 = assay: MIC at salt concentration (Example 3); assay type: cell-based
# Protocol: as §1, §2
# Escherichia coli 1238 = assay: MIC at salt concentration (Example 3); assay type: cell-based
# Protocol: as §1, §2
# Escherichia coli = assay: MIC at salt concentration (Example 3); assay type: cell-based
# Protocol: as §1, §2
# P. aeruginosa 3592 = assay: MIC at salt concentration (Example 3); assay type: cell-based, Pseudomonas aeruginosa
# Protocol: as §1, §2
# P. aeruginosa 5018 = assay: MIC at salt concentration (Example 3); assay type: cell-based, Pseudomonas aeruginosa
# Protocol: as §1, §2
# P. aeruginosa [3] = assay: MIC at salt concentration (Example 3); assay type: cell-based, Pseudomonas aeruginosa
# Protocol: as §1, §2
# P. aeruginosa [4] = assay: Anti-biofilm activity (crystal violet); assay type: cell-based, Pseudomonas aeruginosa
# Protocol: (§3) To compare the antimicrobial activity of the peptide produced by the method of Example 1, the inventors of the present invention measured the biofilm inhibitory concentration value of the peptide showing no dissociation of bacterial cells.
# (§4) Specifically, the Gram-negative bacteria and Gram-positive bacteria among the bacterial strains described in the above Table 2 were cultured in each medium to a mid-log phase. Then, after dilution to bacterial cell concentration of 5×10^5 cells/100 μl, the cells were inoculated to a microtiter plate (NUNC, USA). Thereafter, myxinidin 1, myxinidin 2, or myxinidin 3 peptides which have been synthesized in Example 1 above was diluted, 1/10 times for each, with physiological saline (PBS) solution in a 96-well plate. After adding the cells to a plate, the cells were cultured for 12 hours at 37° C. After removing the supernatant, the cells were fixed with 100% methanol and reacted for 2 hours with Crystal violet staining solution followed by rinsing for 3 times. Then, after dissolving in 95% ethanol, the absorbance was measured at a wavelength of 595 nm by using a microtiter plate reader (Merck Elisa reader, Germany) to determine the biofilm inhibitory concentration value of each bacterial strain. As a control group, myxinidin as a mother peptide was subjected to the same processes as above and the biofilm inhibitory concentration value of each bacterial strain was obtained.
# S. aureus [5] = assay: Anti-biofilm activity (crystal violet); assay type: cell-based, Staphylococcus aureus
# Protocol: as §3, §4
# L. monocytogenes [6] = assay: Anti-biofilm activity (crystal violet); assay type: cell-based, Listeria monocytogenes
# Protocol: as §3, §4
# [7] = NaCl (BSA+150 mM sodium chloride)
smiles,measurement,setting,value
"CC[C@H](C)[C@H](NC(=O)[C@H](Cc1c[nH]c2ccccc12)NC(=O)[C@H](CCCNC(=N)N)NC(=O)[C@@H](NC(=O)[C@@H](N)CCCNC(=N)N)[C@@H](C)CC)C(=O)N[C@@H](CC(C)C)C(=O)N[C@@H](CCCNC(=N)N)C(=O)N[C@@H](Cc1ccc(O)cc1)C(=O)N[C@@H](Cc1c[nH]c2ccccc12)C(=O)N[C@@H](CCCNC(=N)N)C(=O)N[C@@H](Cc1c[nH]c2ccccc12)C(=O)N[C@@H](CO)C(N)=O [Myxinidin 3, RIRWILRYWRWS-NH2] (H-RIRWILRYWRWS-NH2; N-terminus assumed)",Antimicrobial activity (MIC) according to salt concentration,S. typhimurium 8009; [7],4
same,Antimicrobial activity (MIC) according to salt concentration,S. typhimurium 8009; PBS,4
same,Antimicrobial activity (MIC) according to salt concentration,S. typhimurium 8009; SP (10 mM sodium phosphate),2
same,Antimicrobial activity (MIC) according to salt concentration,S. typhimurium 8013; [7],8
same,Antimicrobial activity (MIC) according to salt concentration,S. typhimurium 8013; PBS,4
same,Antimicrobial activity (MIC) according to salt concentration,S. typhimurium 8013; SP (10 mM sodium phosphate),2
same,Antimicrobial activity (MIC) according to salt concentration,S. typhimurium; [7],2
same,Antimicrobial activity (MIC) according to salt concentration,S. typhimurium; PBS,2
same,Antimicrobial activity (MIC) according to salt concentration,S. typhimurium; SP (10 mM sodium phosphate),2
same,Antimicrobial activity (MIC) according to salt concentration,S. aureus 3114; [7],16
same,Antimicrobial activity (MIC) according to salt concentration,S. aureus 3114; PBS,4
same,Antimicrobial activity (MIC) according to salt concentration,S. aureus 3114; SP (10 mM sodium phosphate),4
same,Antimicrobial activity (MIC) according to salt concentration,S. aureus 3709; [7],4
same,Antimicrobial activity (MIC) according to salt concentration,S. aureus 3709; PBS,4
same,Antimicrobial activity (MIC) according to salt concentration,S. aureus 3709; SP (10 mM sodium phosphate),4
same,Antimicrobial activity (MIC) according to salt concentration,S. aureus [1]; [7],0.25
same,Antimicrobial activity (MIC) according to salt concentration,S. aureus [1]; PBS,1
same,Antimicrobial activity (MIC) according to salt concentration,S. aureus [1]; SP (10 mM sodium phosphate),1
same,Antimicrobial activity (MIC) according to salt concentration,L. monocytogenes [2]; [7],2
same,Antimicrobial activity (MIC) according to salt concentration,L. monocytogenes [2]; PBS,4
same,Antimicrobial activity (MIC) according to salt concentration,L. monocytogenes [2]; SP (10 mM sodium phosphate),4
same,Antimicrobial activity (MIC) according to salt concentration,Escherichia coli 1229; [7],2
same,Antimicrobial activity (MIC) according to salt concentration,Escherichia coli 1229; PBS,2
same,Antimicrobial activity (MIC) according to salt concentration,Escherichia coli 1229; SP (10 mM sodium phosphate),2
same,Antimicrobial activity (MIC) according to salt concentration,Escherichia coli 1238; [7],8
same,Antimicrobial activity (MIC) according to salt concentration,Escherichia coli 1238; PBS,4
same,Antimicrobial activity (MIC) according to salt concentration,Escherichia coli 1238; SP (10 mM sodium phosphate),2
same,Antimicrobial activity (MIC) according to salt concentration,Escherichia coli; [7],8
same,Antimicrobial activity (MIC) according to salt concentration,Escherichia coli; PBS,2
same,Antimicrobial activity (MIC) according to salt concentration,Escherichia coli; SP (10 mM sodium phosphate),2
same,Antimicrobial activity (MIC) according to salt concentration,P. aeruginosa 3592; [7],8
same,Antimicrobial activity (MIC) according to salt concentration,P. aeruginosa 3592; PBS,4
same,Antimicrobial activity (MIC) according to salt concentration,P. aeruginosa 3592; SP (10 mM sodium phosphate),4
same,Antimicrobial activity (MIC) according to salt concentration,P. aeruginosa 5018; [7],8
same,Antimicrobial activity (MIC) according to salt concentration,P. aeruginosa 5018; PBS,4
same,Antimicrobial activity (MIC) according to salt concentration,P. aeruginosa 5018; SP (10 mM sodium phosphate),2
same,Antimicrobial activity (MIC) according to salt concentration,P. aeruginosa [3]; [7],4
same,Antimicrobial activity (MIC) according to salt concentration,P. aeruginosa [3]; PBS,4
same,Antimicrobial activity (MIC) according to salt concentration,P. aeruginosa [3]; SP (10 mM sodium phosphate),4
same,Biofilm forming ability,P. aeruginosa [4]; peptide 0.25 μM,100%
same,Biofilm forming ability,P. aeruginosa [4]; peptide 0.5 μM,97%
same,Biofilm forming ability,P. aeruginosa [4]; peptide 1 μM,97%
same,Biofilm forming ability,P. aeruginosa [4]; peptide 2 μM,64%
same,Biofilm forming ability,P. aeruginosa [4]; peptide 4 μM,8%
same,Biofilm forming ability,P. aeruginosa [4]; peptide 8 μM,7%
same,Biofilm forming ability,P. aeruginosa [4]; peptide 16 μM,7%
same,Biofilm forming ability,P. aeruginosa [4]; peptide 32 μM,7%
same,Biofilm forming ability,S. aureus [5]; peptide 0.25 μM,85%
same,Biofilm forming ability,S. aureus [5]; peptide 0.5 μM,84%
same,Biofilm forming ability,S. aureus [5]; peptide 1 μM,84%
same,Biofilm forming ability,S. aureus [5]; peptide 2 μM,71%
same,Biofilm forming ability,S. aureus [5]; peptide 4 μM,28%
same,Biofilm forming ability,S. aureus [5]; peptide 8 μM,17%
same,Biofilm forming ability,S. aureus [5]; peptide 16 μM,16%
same,Biofilm forming ability,S. aureus [5]; peptide 32 μM,14%
same,Biofilm forming ability,L. monocytogenes [6]; peptide 0.25 μM,94%
same,Biofilm forming ability,L. monocytogenes [6]; peptide 0.5 μM,87%
same,Biofilm forming ability,L. monocytogenes [6]; peptide 1 μM,87%
same,Biofilm forming ability,L. monocytogenes [6]; peptide 2 μM,83%
same,Biofilm forming ability,L. monocytogenes [6]; peptide 4 μM,22%
same,Biofilm forming ability,L. monocytogenes [6]; peptide 8 μM,21%
same,Biofilm forming ability,L. monocytogenes [6]; peptide 16 μM,18%
same,Biofilm forming ability,L. monocytogenes [6]; peptide 32 μM,16%
